# Measured values from patent publication US20250215029A1 (Recludix Pharma, Inc., priority 2022, published 2025).
# Target: T1, pY705-STAT3 in PBMC (Homo sapiens, UniProt P40763)
# T1 construct: Cryopreserved Peripheral Blood Mononuclear Cells (PBMC) are from AllCells; host or cells: cryopreserved PBMC
# Assay: MSD-pSTAT-PBMC Assay (pSTAT3, IL-6 stimulated)
# Format: cell-based
# Conditions: PBMC, compound 3 hrs, then 10 ng/mL IL-6 for 10 min; Table 115; read-out: STAT3
# Excerpt: Cryopreserved Peripheral Blood Mononuclear Cells (PBMC) are from AllCells. Recombinant Human IL-4 and IL-6 are from Peprotech. Mouse monoclonal anti-STAT3 antibody, rabbit monoclonal anti-pY705-STAT3 antibody, rabbit monoclonal Anti-pY641-STAT6 antibody, and lysis buffer are from Cell Signaling Technology (CST). Mouse monoclonal anti-STAT6 antibody is from BioLegend. Assay plates, blocker, and anti-rabbit secondary antibody are from Meso Scale Discovery (MSD).
# Cyropreserved PBMCs were thawed out and allowed to recover overnight in IMDM+10% heat-inactivated FBS prior to plating 50,000 (STAT3) or 25,000 (STAT6) cells per well in 96-well U-bottom tissue culture plates. Cells were treated with compound for 3 hrs, then stimulated with 10 ng/mL IL-6 (STAT3) or 1 ng/mL IL-4 (STAT6) for 10 min. Cells were then spun down and washed with ice-cold PBS prior to lysing the cell pellet with 1× lysis buffer (CST) with 1× HALT protease and phosphatase inhibitor cocktail (Thermo). Lysates were transferred to and incubated overnight at 4° C. with shaking in QuickPlex 96-well high bind assay plates (MSD) pre-coated overnight with 30 μL per well of 0.6 μg/mL mouse monoclonal anti-STAT3 antibody (STAT3) or 2 μg/mL mouse monoclonal anti-STAT6 antibody (STAT6) in 1× PBS, and pre-blocked for 1 hour with 3% Blocker-A (MSD). Captured protein in the assay plates were then washed and probed with 25 μL per well of […] rabbit monoclonal anti-pY705-STAT3 antibody (STAT3) or 0.18 μg/ml rabbit monoclonal Anti-pY641-STAT6 antibody (STAT6) in 1% Blocker-A for 1 hour at room temperature with shaking, then washed and probed with 25 ul per well of 1 ug/ml Sulfo-TAG Labeled Goat Anti-Rabbit Antibody (MSD) in 1% Blocker-A for 1 hour at room temperature with shaking. Assay plates were then washed and 150 μL of 1× Read Buffer-T (MSD) was added to each well prior to reading on an SQ120 MSD Plate Reader. Assay signal from each sample was subtracted by the signal from unstimulated control wells and normalized to DMSO control wells. IC50 values were calculated using Graph Pad Prism Dose-Response Nonlinear Regression with variable slope. For both pSTAT3 and pSTAT6 A=≤100 nM; B 100-1000 nM; C=>1000-3000 nM; D=>3 μM; and NT=Not Tested.
# T1 sequence (P40763 whole entry): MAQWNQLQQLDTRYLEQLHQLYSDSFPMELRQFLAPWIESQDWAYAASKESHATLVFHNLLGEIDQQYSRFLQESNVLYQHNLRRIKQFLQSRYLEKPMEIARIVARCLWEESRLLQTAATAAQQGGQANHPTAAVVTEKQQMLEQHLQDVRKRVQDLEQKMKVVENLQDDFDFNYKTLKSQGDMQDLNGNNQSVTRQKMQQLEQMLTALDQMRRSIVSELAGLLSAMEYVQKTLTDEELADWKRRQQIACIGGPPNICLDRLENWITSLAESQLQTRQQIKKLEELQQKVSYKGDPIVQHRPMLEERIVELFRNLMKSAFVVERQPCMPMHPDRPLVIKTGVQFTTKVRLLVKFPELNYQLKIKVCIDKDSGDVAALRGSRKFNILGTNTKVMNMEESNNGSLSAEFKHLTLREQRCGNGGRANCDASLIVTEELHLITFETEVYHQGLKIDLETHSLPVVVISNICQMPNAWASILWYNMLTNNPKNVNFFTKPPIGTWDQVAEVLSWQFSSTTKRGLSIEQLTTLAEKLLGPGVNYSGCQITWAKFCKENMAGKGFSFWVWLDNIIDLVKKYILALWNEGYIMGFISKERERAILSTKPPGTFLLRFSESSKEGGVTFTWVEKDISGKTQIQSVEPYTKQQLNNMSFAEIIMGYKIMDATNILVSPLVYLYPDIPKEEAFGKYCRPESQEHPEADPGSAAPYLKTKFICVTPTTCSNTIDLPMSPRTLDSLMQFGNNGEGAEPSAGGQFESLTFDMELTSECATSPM
row,Compound,IC50
1,"CCCOC(=O)[C@H](C)N[P@](=O)(Oc1ccccc1)[C@@H](F)c1ccc2sc(C(=O)N[C@H]3CCC[C@H]4CC[C@@H](C(=O)N5CC(c6cnccc6N6CCOCC6)C5)N4C3=O)cc2c1 (single isomer, unassigned) [Compound 1047]",0.1 to 1 µM
2,"CCCOC(=O)[C@H](C)N[P@](=O)(Oc1ccccc1)[C@@H](F)c1ccc2sc(C(=O)N[C@H]3C[C@@H](C)C[C@H]4CC[C@@H](C(=O)N5CC(c6cnccc6OC(C)C)C5)N4C3=O)cc2c1 (single isomer, unassigned) [Compound 1034]",< 0.1 µM
3,"CC(C)OC(=O)C(C)(C)NP(=O)(Cc1ccc2sc(C(=O)N[C@H]3CCC[C@H]4CC[C@@H](C(=O)N5CC(c6cccnc6)C5)N4C3=O)cc2c1)Oc1ccccc1 (stereo partly drawn) [Compound 395, isopropyl 2-methyl-2-((((2-(((3S,6S,9aS)-5-oxo-3-(3-(pyridin-3-yl)azetidine-1-carbonyl)octahydro-1H-pyrrolo[1,2-a]azepin-6-yl)carbamoyl)benzo [b]thiophen-5-yl)methyl)(phenoxy)phosphoryl)amino) propanoate]",0.1 to 1 µM
4,"CC(C)COC(=O)[C@H](C)NP(=O)(Oc1ccccc1)C(F)c1ccc2sc(C(=O)N[C@H]3CCC[C@H]4CC[C@@H](C(=O)N5CC(c6cnccc6F)C5)N4C3=O)cc2c1 (stereo partly drawn) [Compound 277, isobutyl ((fluoro(2-(((3S,6S,9aS)-3-(3-(4-fluoropyridin-3-yl)azetidine-1-carbonyl)-5-oxooctahydro-1H-pyrrolo[1,2-a]azepin-6-yl)carbamoyl)benzo [b]thiophen-5-yl)methyl)(phenoxy)phosphoryl)-L-alaninate]",< 0.1 µM
5,"CCCCOC(=O)[C@H](C)NP(=O)(Cc1ccc2sc(C(=O)N[C@H]3CCC[C@H]4CC[C@@H](C(=O)N5CC(c6cccnc6)C5)N4C3=O)cc2c1)N[C@@H](C)C(=O)OCCCC [Compound 420, dibutyl 2,2′-((((2-(((3S,6S,9aS)-5-oxo-3-(3-(pyridin-3-yl)azetidine-1-carbonyl)octahydro-1H-pyrrolo[1,2-a]azepin-6-yl)carbamoyl)benzo [b]thiophen-5-yl)methyl)phosphoryl)bis(azanediyl)) (2S,2′S)-dipropionate]",0.1 to 1 µM
6,"CCCOC(=O)[C@H](C)NP(=O)(Cc1ccc2sc(C(=O)N[C@H]3CCC[C@H]4CC[C@@H](C(=O)N5CC(c6cnccc6OC(F)F)C5)N4C3=O)cc2c1)Oc1ccccc1 (stereo partly drawn) [Compound 996, propyl (((2-(((3S,6S,9aS)-3-(3-(4-(difluoromethoxy)pyridin-3-yl)azetidine-1-carbonyl)-5-oxooctahydro-1H-pyrrolo[1,2-a]azepin-6-yl)carbamoyl)benzo [b]thiophen-5-yl)methyl)(phenoxy) )phosphoryl)-L-alaninate]",0.1 to 1 µM
7,"CCCOC(=O)[C@H](C)NP(=O)(Cc1ccc2sc(C(=O)N[C@H]3CCC[C@H]4CC[C@@H](C(=O)N5CC(c6c(OC)ccnc6C(F)F)C5)N4C3=O)cc2c1)Oc1ccccc1 (stereo partly drawn) [Compound 990, propyl (((2-(((3S,6S, 9aS)-3-(3-(2-(difluoromethyl)-4-methoxypyridin-3-yl)azetidine-1-carbonyl)-5-oxooctahydro-1H-pyrrolo[1,2-a]azepin-6-yl)carbamoyl)benzo [b]thiophen-5-yl)methyl)(phenoxy)phosphoryl)-L-alaninate]",> 3 µM
8,"CCCCOC(=O)[C@H](C)NP(=O)(Oc1ccccc1)C(F)(F)c1ccc2sc(C(=O)N[C@H]3CCC[C@H]4CC[C@@H](C(=O)N5CC(c6cccnc6)C5)N4C3=O)cc2c1 (stereo partly drawn) [Compound 254, butyl ((difluoro(2-(((3S,6S,9aS)-5-oxo-3-(3-(pyridin-3-yl)azetidine-1-carbonyl)octahydro-1H-pyrrolo[1,2-a]azepin-6-yl)carbamoyl)benzo [b]thiophen-5-yl)methyl)(phenoxy)phosphoryl)-L-alaninate]",0.1 to 1 µM
9,"CCCOC(=O)[C@H](C)NP(=O)(Oc1ccccc1)C(F)(F)c1ccc2sc(C(=O)N[C@H]3CCC[C@H]4CC[C@@H](C(=O)N5CC(c6cccnc6)C5)N4C3=O)cc2c1 (stereo partly drawn) [Compound 306, propyl ((difluoro(2-(((3S,6S,9aS)-5-oxo-3-(3-(pyridin-3-yl)azetidine-1-carbonyl)octahydro-1H-pyrrolo[1,2-a]azepin-6-yl)carbamoyl)benzo [b]thiophen-5-yl)methyl)(phenoxy)phosphoryl)-L-alaninate]",1 to 3 µM
10,"COC[C@H](NP(=O)(Cc1ccc2sc(C(=O)N[C@H]3CCC[C@H]4CC[C@@H](C(=O)N5CC(c6cccnc6)C5)N4C3=O)cc2c1)Oc1ccccc1)C(=O)OCC(C)C (stereo partly drawn) [Compound 945, isobutyl O-methyl-N-(((2-(((3S,6S,9aS)-5-oxo-3-(3-(pyridin-3-yl)azetidine-1-carbonyl)octahydro-1H-pyrrolo[1,2-a]azepin-6-yl)carbamoyl)benzo [b]thiophen-5-yl)methyl)(phenoxy)phosphoryl)-L-serinate]",0.1 to 1 µM
11,"COC1(c2cnccc2C)CN(C(=O)[C@@H]2CC[C@@H]3CCC[C@H](NC(=O)c4cc5cc(C(F)(F)P(=O)(OCCSC(=O)CC(C)C)OCCSC(=O)CC(C)C)ccc5s4)C(=O)N32)C1 [Compound 963, S,S′-((((difluoro(2-(((3S,6S,9aS)-3-(3-methoxy-3-(4-methylpyridin-3-yl)azetidine-1-carbonyl)-5-oxooctahydro-1H-pyrrolo[1,2-a]azepin-6-yl)carbamoyl)benzo [b]thiophen-5-yl)methyl)phosphoryl)bis(oxy))bis(ethane-2,1-diyl)) bis(3-methylbutanethioate)]",0.1 to 1 µM
12,"CCCOC(=O)[C@H](C)NP(=O)(Oc1ccccc1)[C@@H](F)c1ccc2sc(C(=O)N[C@H]3CCC[C@H]4CC[C@@H](C(=O)N5CC(c6cnccc6OCC)C5)N4C3=O)cc2c1 (stereo partly drawn) [Compound 494, propyl (((R)-(2-(((3S,6S,9aS)-3-(3-(4-ethoxypyridin-3-yl)azetidine-1-carbonyl)-5-oxooctahydro-1H-pyrrolo[1,2-a]azepin-6-yl)carbamoyl)benzo [b]thiophen-5-yl)fluoromethyl) (phenoxy)phosphoryl)-L-alaninate]",< 0.1 µM
13,CCCOC(=O)[C@H](C)N[P@](=O)(Oc1ccccc1)[C@H](F)c1ccc2sc(C(=O)N[C@H]3CCC[C@H]4CC[C@@H](C(=O)N5CC(c6cnccc6N(C)C)C5)N4C3=O)cc2c1 (stereo in doubt) [Compound 953],< 0.1 µM
14,CCCOC(=O)[C@H](C)NP(=O)(Oc1ccccc1)[C@H](F)c1ccc2sc(C(=O)N[C@H]3CCC[C@H]4CC[C@@H](C(=O)N5CC(c6cncnc6N6CCC6)C5)N4C3=O)cc2c1 (stereo partly drawn) [Compound 1076],< 0.1 µM
15,"CC(C)CC(=O)SCCOP(=O)(OCOC(=O)OC(C)C)[C@H](F)c1ccc2sc(C(=O)N[C@H]3CCC[C@H]4CC[C@@H](C(=O)N5CC(c6cccnc6)C5)N4C3=O)cc2c1 (stereo partly drawn) [Compound 1096, S-(2-((((S)-fluoro(2-(((3S,6S,9aS)-5-oxo-3-(3-(pyridin-3-yl)azetidine-1-carbonyl)octahydro-1H-pyrrolo[1,2-a]azepin-6-yl)carbamoyl)benzo [b]thiophen-5-yl)methyl) (((isopropoxy-carbonyl)oxy)methoxy)phosphoryl)oxy)ethyl) 3-methylbutanethioate]",< 0.1 µM
